Test systems include DMS 114 small cell lung; DMS 273 small cell lung; HOP-18 NSCLC; KM20L2 colon; M19-MEL melanoma; P388 leukemia; P388/ADR leukemia; SN12K1 renal; SNB-78 CNS.
What all share (assay): NCI tumour cell line growth inhibition, 48 h

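Exposure lasted 48 hours, with cells grown in 96-well plates and compounds tested at five concentrations. At the TGI there is no net growth.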

On to `CC(O)CCC(=O)c1ccoc1` (centres undefined), for which the TGI was above 9.67 mM in the experiment on DMS 114 small cell lung; above 9.14 mM in the experiment with DMS 273 small cell lung; above 10 mM with HOP-18 NSCLC; above 10 mM in the experiment on KM20L2 colon; above 10 mM in the experiment on M19-MEL melanoma; above 10 mM in the experiment with P388 leukemia. Besides, the TGI in the experiment on P388/ADR leukemia was above 10 mM; with SN12K1 renal, above 10 mM; in the experiment on SNB-78 CNS, 9.99 mM.

For the origin of these results see PubChem BioAssay (NCI).
